Measurements: patent US20210371385A1, “POLYMORPHIC AND AMORPHOUS FORMS OF ISOQUINOLINONE AND METHODS OF USE THEREOF” (Sojournix, Inc., priority 2018, published 2021)
Values after ≈ are worked out from the molar mass of the structure shown.

What was measured:
[1] = Solubility by gravimetric method in 14 solvents; format: physicochemical; details: for solubility at 2 days: organic solvent or mixture, thermodynamic from solid; for Solubility: Water:DMSO (9:1 vol)
Protocol: Solubility measurements were done by gravimetric method in 14 different solvents at two temperatures (23° C. and 50° C.). About 25-35 mg solid was dispensed in 2 mL vials and 0.75 mL solvent was added to form a slurry. The slurries were then stirred for two days. The vials were centrifuged and the supernatant was collected for solubility measurement by gravimetric method.

[2] = Maximal absorbable dose (MAD) calculation; design: species or system humans
Protocol: The maximal absorbable dose (MAD) of SJB-01, as described by Curatolo (1998), can be calculated according to the following equation: […]
Using this equation, the maximal absorbable dose is 16 mg for SJB-01.

CCNn1c(C)c(C(=O)N[C@H](c2ccccc2)C2CC2)c2cccc(F)c2c1=O [SJB-01, 2-Ethylamino-8-fluoro-3-methyl-1-oxo-1,2-dihydro-isoquinoline-4-carboxylic acid ((S)-cyclopropyl-phenyl-methyl)-amide]
solubility at 2 days ([1]; ACN, 23 °C): 62 mg/mL (≈ 158 mM) | solubility at 2 days ([1]; ACN, 50 °C): 99 mg/mL (≈ 252 mM) | solubility at 2 days ([1]; EtOAc, 23 °C): 42 mg/mL (≈ 107 mM) | solubility at 2 days ([1]; EtOAc, 50 °C): 67 mg/mL (≈ 170 mM) | solubility at 2 days ([1]; EtOH, 23 °C): > 42 mg/mL | solubility at 2 days ([1]; IPA:water (85:15 vol), 23 °C): 27 mg/mL (≈ 68.6 mM) | solubility at 2 days ([1]; IPA:water (85:15 vol), 50 °C): 60 mg/mL (≈ 152 mM) | solubility at 2 days ([1]; IPAc, 23 °C): 22 mg/mL (≈ 55.9 mM) | solubility at 2 days ([1]; IPAc, 50 °C): 37 mg/mL (≈ 94 mM) | solubility at 2 days ([1]; MIBK, 23 °C): 40 mg/mL (≈ 102 mM) | solubility at 2 days ([1]; MIBK, 50 °C): 61 mg/mL (≈ 155 mM) | solubility at 2 days ([1]; MtBE, 23 °C): 8 mg/mL (≈ 20.3 mM) | solubility at 2 days ([1]; MtBE, 50 °C): 11 mg/mL (≈ 28 mM) | solubility at 2 days ([1]; THF, 23 °C): > 68 mg/mL | solubility at 2 days ([1]; THF, 50 °C): > 68 mg/mL | Solubility ([1]; 23 °C): Nil | Solubility ([1]; 50 °C): Nil | solubility at 2 days ([1]; acetic acid, 23 °C): > 72 mg/mL | solubility at 2 days ([1]; acetic acid, 50 °C): > 72 mg/mL | solubility at 2 days ([1]; acetone, 23 °C): > 67 mg/mL | solubility at 2 days ([1]; acetone, 50 °C): > 67 mg/mL | solubility at 2 days ([1]; dioxane, 23 °C): > 74 mg/mL | solubility at 2 days ([1]; dioxane, 50 °C): > 74 mg/mL | solubility at 2 days ([1]; ethanol, EtOH, 50 °C): > 42 mg/mL | solubility at 2 days ([1]; isopropanol (IPA), IPA, 23 °C): 29 mg/mL (≈ 73.7 mM) | solubility at 2 days ([1]; isopropanol (IPA), IPA, 50 °C): 64 mg/mL (≈ 163 mM) | solubility at 2 days ([1]; MeOH, 23 °C, lot L100142-1-1): > 76 mg/mL | solubility at 2 days ([1]; MeOH, 50 °C, lot L100142-1-1): > 76 mg/mL | Maximal absorbable dose (MAD) ([2]; MAD=S*Ka*SIWV*SITT, S solubility at pH 6.5): 16 mg | Maximal absorbable dose (MAD) ([2]; humans, solubility in 0.001M HCl pH 3.0, data from the β-form): 16 mg | Maximal absorbable dose (MAD) ([2]; humans, solubility in FaSSIF, data from the β-form): 22 mg | Maximal absorbable dose (MAD) ([2]; humans, solubility in FeSSIF (fed state), data from the β-form): 38 mg
